Laboratory results taken from patent publication US6765096B1, “Tricyclic compound having acyloxymethoxycarbonyl side chain” (Shionogi & Co., Ltd., priority 1999, dated 2004).

Assays:
[1] = tested on: anti-ovalbumin (OVA) IgE antibody production; experiment: IgE antibody production inhibiting effects against anti-ovalbumin (OVA); anti-OVA IgE antibody titer (PCA titer); assay type: in vivo, BALB/c mice; settings: consecutive 10 days, OVA-immunized BALB/c mouse, Log2 of maximum serum dilution giving PCA positive reaction in Wistar rat
Protocol: Test Example 1 IgE Antibody Production Inhibiting Effects Against Anti-ovalbumin (OVA)
BALB/c mice (female, 8-10 weeks old) and Wistar rats (female, 8-10 weeks old) purchased from Japan SLC (Shizuoka) were used.
2) Method of Immunization
0.2 mL of a solution obtained by suspending 2 μg of ovalbumin (OVA) and 2 mg of aluminium hydroxide gel in a physiological saline was injected in a BALB/c mouse intraperitoneally to immunize it. After ten days, blood was taken from the heart, serum was separated, and stored at −40° C. until the IgE antibody titer was measured.
[…] Administration was carried out for consecutive 10 days from an immunization day to the day before a blood collection day.
4) Measurement of Anti-OVA IgE Antibody Titer (PCA Titer)
The resulting mouse serum was prepared into a 2-fold dilution series using a physiological saline, each 50 μl of which was injected to a pre-haircut Wistar rat intracutaneously at a back. After 24 hours, 0.5 mL of a physiological saline containing 1 mg of OVA and 5 mg of Evans Blue pigment was injected intravenously to induce passive cutaneous anaphylaxis reaction (PCA). After 30 minutes, a maximum dilution rate of the serum showing PCA positive reaction of a pigment spot having a diameter of 5 mm or more was determined, and Log2 of its dilution rate was adopted as a PCA titer. For example, when a serum becomes PCA reaction positive until 2^7-fold dilution, an anti-OVA IgE antibody titer of the mouse is 7.

[2] = Oral absorption test, fasting rat (Test Examples 2 and 3); assay type: in vivo, Jcl:SD male rat; settings: rat 18 hours fasting
Protocol: Test Example 2 Oral Absorption Test
(§1) The present compound (I-1) was ground with an agate mortar, which was prepared into an aqueous suspension having the concentration of 10 mg/mL using a 0.5% aqueous methylcellulose solution as a vehicle. Each compound was orally administered to a Jcl:SD male rat (10 weeks old, 18 hours fasting) as a parent compound at a rate of 20 mg/kg. 0.5, 1, 2, 4, 6, 8 and 24 hours after administration, 0.3 mL of blood was taken from a cannula inserted in rat jugular in advance. The blood was centrifuged to obtain a plasma. 0.5 mL of a mixed solution of methanol and acetonitrile (1/1 (w/w)) was added to 0.1 mL of the plasma, proteins were removed therefrom, followed by centrifugation. The supernatant was used as a HPLC sample.
The oral absorbabilities of the present compound (I-163) and its parent compound (II-4) were measured as in Test Example 2.

[3] = Oral absorption test, non-fasting rat (Test Example 4); assay type: in vivo
Protocol: as §1
Test Example 4 Oral Absorption Test
The oral absorbabilities of the present compound (I-16) and its parent compound (II-1) were measured as in Test Example 2 using a non-fasting rat.

[4] = oral administration, only parent compound (II-1) observed
[5] = plasma concentration of parent compound after oral administration, 20 mg/kg as parent compound
[6] = plasma concentration of parent compound (II-1) after oral administration

## CC(=O)NC(CCC(N)=O)C(=O)OCOC(=O)N(CC=C(C)C)c1ccc(-c2cc(C)c(-c3ccc(OCC=C(C)C)nc3)cc2C)c(F)c1 (stereo not drawn) [Compound I-15, 2-acetylamino-4-carbamoyl-butyric acid [{2-fluoro-2′,5′-dimethyl-4′-[6-(3-methyl-but-2-enyloxy)-pyridin-3-yl]-biphenyl-4-yl}-((E)-3-methyl-but-2-enyl)-carbamoyloxy]-methyl ester]
[1]; 10 mg/Kg orally
  anti-OVA IgE antibody titer (PCA titer): 0

## CC(=O)NC(CCC(=O)OCOC(=O)N(CC=C(C)C)c1ccc(-c2cc(C)c(-c3ccc(OCC=C(C)C)nc3)cc2C)c(F)c1)C(N)=O (stereo not drawn) [Compound I-6, 4-acetylamino-4-carbamoyl-butyric acid [{2-fluoro-2′,5′-dimethyl-4′-[6-(3-methyl-but-2-enyloxy)-pyridin-3-yl]-biphenyl-4-yl}-(3-methyl-but-2-enyl)-carbamoyloxy]-methyl ester]
[1]; 10 mg/Kg orally
  anti-OVA IgE antibody titer (PCA titer): 1.8

## CC(C)=CCOc1ccc(-c2cc(C)c(-c3ccc(N(CC=C(C)C)C(=O)OCOC(=O)CCC(N)=O)cc3F)cc2C)cn1 [Compound I-1]
[1]; 3 mg/Kg orally
  anti-OVA IgE antibody titer (PCA titer): 7.0
[1]; 10 mg/Kg orally
  anti-OVA IgE antibody titer (PCA titer): 0.8
[2]; [4]
  administered prodrug itself in the circulating plasma: not detected
[2]; [5]
  AUC: 32030 ng·h/mL
  Cmax: 2500 ng/mL

## CC(=O)NCC(=O)NCC(=O)OCOC(=O)N(CC=C(C)C)c1ccc(-c2cc(C)c(-c3ccc(OCC=C(C)C)nc3)cc2C)c(F)c1 [Compound I-16, (2-acetylamino-ethanoylamino)-acetic acid [{2-fluoro-2′,5′-dimethyl-4′-[6-(3-methyl-but-2-enyloxy)-pyridin-3-yl]-biphenyl-4yl]}-((E)-3-methyl-but-2-enyl)-carbamoyloxy]-methyl ester]
[3]; [4]
  administered prodrug itself in the circulating plasma: not detected
[3]; [6]
  AUC: 165520 ng·h/mL
  Cmax: 16020 ng/mL
[1]; 10 mg/Kg orally
  anti-OVA IgE antibody titer (PCA titer): <0

## CC(=O)NC(CC(N)=O)C(=O)OCOC(=O)N(CC=C(C)C)c1ccc(-c2cc(C)c(-c3ccc(OCC=C(C)C)nc3)cc2C)c(F)c1 (stereo not drawn) [Compound I-13, 2-acetylamino-succinamic acid [{2-fluoro-2′,5′-dimethyl-4′-[6-(3-methyl-but-2-enyloxy)-pyridin-3-yl]-biphenyl-4-yl}-((E)-3-methyl-but-2-enyl)-carbamoyloxy]-methylester]
[1]; 10 mg/Kg orally
  anti-OVA IgE antibody titer (PCA titer): <0
